PubChem BioAssay (NCI)
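Protocol summary: plate cells (96-well), add compound at 5 concentrations, incubate 48 h, interpolate endpoints linearly. Here, GI50 denotes the concentration required for 50% inhibition of growth. TGI denotes the concentration required for complete inhibition of growth.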

What was measured:
Test in all cases: DTP human tumour cell line panel, 48 h
SNB-78 CNS = test system: SNB-78 CNS
OVCAR-5 ovarian = test system: OVCAR-5 ovarian
DMS 114 small cell lung = test system: DMS 114 small cell lung
HOP-18 NSCLC = test system: HOP-18 NSCLC
LXFL 529 NSCLC = test system: LXFL 529 NSCLC
SF-295 CNS = test system: SF-295 CNS
DLD-1 colon = test system: DLD-1 colon
M19-MEL melanoma = test system: M19-MEL melanoma
KM20L2 colon = test system: KM20L2 colon
RXF 393 renal = test system: RXF 393 renal
KM12 colon = test system: KM12 colon
SK-MEL-2 melanoma = test system: SK-MEL-2 melanoma
DMS 273 small cell lung = test system: DMS 273 small cell lung
T-47D breast = test system: T-47D breast

Row | Compound | TGI (OVCAR-5 ovarian) [µM] | TGI (SF-295 CNS) [µM] | TGI (RXF 393 renal) [µM] | TGI (KM12 colon) [µM] | TGI (SK-MEL-2 melanoma) [µM] | TGI (T-47D breast) [µM] | also measured
1 | N#CC12Cc3cc4c(cc3-c3cccc(c31)CCN2C(=O)c1ccccc1)OCO4 (stereo not given) | > 100 | > 100 | > 100 | > 100 | > 100 |  | TGI (SNB-78 CNS): > 100 µM; TGI (DMS 114 small cell lung): > 100 µM; TGI (HOP-18 NSCLC): > 100 µM; TGI (LXFL 529 NSCLC): > 100 µM; TGI (DLD-1 colon): > 100 µM; TGI (M19-MEL melanoma): > 100 µM; TGI (KM20L2 colon): > 100 µM; TGI (DMS 273 small cell lung): > 100 µM
2 | Clc1ccccc1/C=c1\nc(-c2ccccc2)n2c1nc1ccccc12 | > 100 | 31.2 | 41.9 | > 100 | > 100 | > 100 | 
3 | CC(C)(C)OC(=O)NC(CCCCNC(=O)OCc1ccccc1)C(=O)NCCNc1ccc(NCCNC(=O)C(CCCCNC(=O)OCc2ccccc2)NC(=O)OC(C)(C)C)c2c1C(=O)c1ccccc1C2=O (stereo not given) | > 100 | > 100 | 88.9 | > 100 | 20.5 | 28 | 
4 | COc1ccc(C(=O)C2=NON3OC23C(=O)c2ccc(OC)cc2)cc1 (stereo not given) | 36.7 | 34.1 | 17.1 | 36.6 | 34.5 |  | TGI (SNB-78 CNS): 42.3 µM; TGI (DMS 114 small cell lung): 11.1 µM; TGI (HOP-18 NSCLC): 33.7 µM; TGI (LXFL 529 NSCLC): 6.68 µM; TGI (DLD-1 colon): 21.5 µM; TGI (M19-MEL melanoma): 32.8 µM; TGI (KM20L2 colon): 35.5 µM; TGI (DMS 273 small cell lung): 36.4 µM
5 | O=C(O[C@@H](/C=C/c1ccccc1)P1(=O)N(Cc2ccccc2)[C@H]2CCCC[C@@H]2N1Cc1ccccc1)c1ccccc1 | > 100 | > 100 | 7.85 | 14.8 | 3.98 | 47.2 | 
6 | O=c1[nH]c(Nc2ccc(Cl)c(C(F)(F)F)c2)nc2nc[nH]c12 | > 100 | > 100 | > 100 | > 100 | 91.2 | > 100 | 
7 | CN(C)c1ccc(C=Nc2ccc(-c3nc4ccccc4[nH]3)cc2)cc1 | > 100 | > 100 | 80 | > 100 | > 100 | > 100 | 
8 | COCC1CCCN1c1ccc(C=N/C(C#N)=C(\N)C#N)cc1 (stereo not given) | > 100 | > 100 | > 100 | > 100 | > 100 | > 100 | GI50 (OVCAR-5 ovarian): > 100 µM; GI50 (SF-295 CNS): > 100 µM; GI50 (RXF 393 renal): 38.4 µM; GI50 (KM12 colon): > 100 µM; GI50 (SK-MEL-2 melanoma): > 100 µM; GI50 (T-47D breast): > 100 µM
9 | OCc1cn(C(c2ccccc2)(c2ccccc2)c2ccccc2)cn1 | > 100 | 89.7 |  |  | > 100 | > 100 | 
10 | c1ccc(-c2nnn3c2NC2=C(CCCC2)C3c2ccccc2)cc1 (stereo not given) | 36.9 | 49.7 | 34.9 | 31.2 | 36 | 49.9 | 
11 | COc1c(CC=C(C)C)c(O)c(C(CC(C)C)c2c(O)c3c(c(C(C)=O)c2O)OC(C(C)(C)O)C3)c(O)c1C(C)=O (stereo not given) | > 12.5 | > 12.5 | 10.9 | > 12.5 | > 12.5 | 9.21 | 
12 | OC(c1ccccc1)(c1ccccc1)c1nccc2ccccc12 | > 100 | 36.2 |  | > 100 |  | > 100 | 
13 | CC(O)(Cc1ccccc1C#N)Cc1ccccc1C#N | > 100 | > 100 | > 100 | > 100 | > 100 | > 100 | 
14 | CC(=O)OC1CC[C@@]2(C)C(=CC[C@@H]3[C@@H]2CC[C@]2(C)Nc4nn(S(C)(=O)=O)cc4C[C@@H]32)C1 (stereo not given in full) | > 100 | > 100 | 95.3 | 81.8 | 58.8 | 54.5 | 
15 | Cc1coc2c1C[C@@]1(C)[C@H](CCC[C@@H]1C)[C@H]2O | > 100 | > 100 | 48.8 | > 100 |  | 84.2 | 
16 | COCCNCc1ccc(-c2cc3nccc(Oc4ccc(NC(=S)NC(=O)Cc5ccc(F)cc5)cc4F)c3s2)nc1 | 13.6 |  |  | 2 | 19.1 | 5.75 | GI50 (OVCAR-5 ovarian): 3.05 µM; GI50 (KM12 colon): 0.328 µM; GI50 (SK-MEL-2 melanoma): 6.01 µM; GI50 (T-47D breast): 2.12 µM
17 | O=C(O)c1ccc(C(=O)c2ccccc2C(=O)O)cc1C(=O)O | > 100 | > 100 | > 100 | > 100 | > 100 | > 100 | 
18 | CCOC(=O)C(/C(=N/S(=O)(=O)c1cc(C)c(Cl)cc1[S-])[n+]1ccc(N(C)C)cc1)=C(/O)c1ccc([N+](=O)[O-])cc1 | > 100 | 54.1 | > 100 | 82.7 | 28.3 | > 100 | 
